Laboratory results: patent publication US20010034039A1, “Bioluminescent organism for detecting toxic substances” (priority 2000, published 2001)
In brackets after ≈: the same amount, converted by molar mass. Like-named read-outs stand apart in the source and are kept apart here.

Key:
[1] = test system: oceanic luminescent bacterium (Vibrio sp. Isolate); assay: microbe, parasite or virus in culture; format: cell-based; settings: read-out: EC50 (decrease luminescence by 50%)
[2] = test system: YH9-RC deposited under KCTC 0730BP; assay: microbe, parasite or virus in culture; format: cell-based; settings: Janthinobacterium lividum, read-out: EC50 (decrease luminescence by 50%)
Experimental: Toxicity tests for a variety of substances described in the following Table 2 were conducted using YH9-RC deposited under KCTC 0730BP obtained in the Example 1 to calculate EC50 (Effective concentration 50: the effective concentration of tested organism that decrease luminescence by 50%). It was compared with the EC50 value using oceanic luminescent bacterium (Vibrio sp. Isolate) that was most commonly used in a conventional toxicity test. First, the YH9-RC colony was cultured in an R2A broth containing 5 μg/ml of tetracycline (liquid culture medium containing Bacto yeast extract 0.5 wt %, Bacto proteose peptone No. 3 0.5 wt %, Bacto casamino acids 0.5 wt %, Bacto dextrose 0.5 wt %, soluble starch 0.5 wt %, sodium pyruvate 0.5 wt %, potassium phosphate dibasic 0.5 wt %, and magnesium sulfate 0.5 wt %) for 18 hours or more, and then it was sub-cultured in an R2A broth for another 7 to 8 hours, and the aliquot of the fresh culture was used in the toxicity test. In addition, 80 μl of the cell culture liquid, 80 μl of 0.03 wt % aldehyde aqueous solution, and 40 μl of a toxic sample diluted to various concentrations were mixed in a test tube of a luminometer, […]

YH-9 = settings: YH9 strain
From the text: Then, the YH9 was transformed, and luminescent genes were introduced therein.

Compound | EC50 ([1]; 5 min) [µg/mL] | EC50 ([1]; 10 min) [µg/mL] | EC50 ([1]; 0.25 h) [µg/mL] | EC50 ([2]; 5 min) [µg/mL] | EC50 ([2]; 10 min) [µg/mL] | EC50 ([2]; 0.25 h) [µg/mL] | MIC for phenol among various Gram-negative isolates (YH-9) | EC50 ([1]; 0.25 h, 15 minutes) [µg/mL] | EC50 ([2]; 5 min, YH9-RC, 5 minutes) [µg/mL] | EC50 ([2]; 10 min, YH9-RC, 10 minutes) [µg/mL] | EC50 ([2]; 0.25 h, YH9-RC, 15 minutes) [µg/mL]
c1ccccc1 [Benzene] | 478 (≈ 6120 µM) | 607 (≈ 7770 µM) | 747 (≈ 9570 µM) | 75.2 (≈ 962 µM) | 50.9 (≈ 652 µM) | 35.1 (≈ 449 µM) | – | – | – | – | –
Oc1ccccc1 [Phenol] | 116 (≈ 1230 µM) | 105 (≈ 1120 µM) | 63.1 (≈ 670 µM) | 26.5 (≈ 282 µM) | 12 (≈ 128 µM) | 12.7 (≈ 135 µM) | lowest MIC | – | – | – | –
Cc1ccccc1 [Toluene] | 87.1 (≈ 945 µM) | 120 (≈ 1300 µM) | – | – | – | – | – | 142 (≈ 1540 µM) | 5.61 (≈ 60.9 µM) | 5.65 (≈ 61.3 µM) | 6.3 (≈ 68.4 µM)
Cc1ccc(C)cc1 [p-xylene] | 27.4 (≈ 258 µM) | 105 (≈ 990 µM) | – | – | – | – | – | 63.1 (≈ 594 µM) | 45.3 (≈ 427 µM) | 37.7 (≈ 355 µM) | 49.8 (≈ 469 µM)
